“And” between values parts separate entries of the source, which are not always exact repeats. Equal values may be shown once.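 Exposure lasted 48 hours, with cells grown in 96-well plates and compounds tested at five concentrations. GI50 = concentration required for 50% inhibition of growth. TGI denotes the concentration required for complete inhibition of growth.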
Columns and labels:
Test in all cases: DTP human tumour cell line panel, 48 h
SF-295 CNS = system: SF-295 CNS
IGROV1 ovarian = system: IGROV1 ovarian
OVCAR-4 ovarian = system: OVCAR-4 ovarian
UO-31 renal = system: UO-31 renal
MALME-3M melanoma = system: MALME-3M melanoma
HOP-62 NSCLC = system: HOP-62 NSCLC
ACHN renal = system: ACHN renal
SK-OV-3 ovarian = system: SK-OV-3 ovarian
MOLT-4 leukemia = system: MOLT-4 leukemia
SN12C renal = system: SN12C renal

With Cn1cccc1-c1cc(-c2ccccc2)nc(N)c1C#N the GI50 (SF-295 CNS) was greater than 86.3 µM, the TGI (SF-295 CNS) was greater than 100 µM and the GI50 (IGROV1 ovarian) was greater than 100 µM. For the same compound, the TGI (IGROV1 ovarian) was greater than 100 µM, the GI50 (OVCAR-4 ovarian) was greater than 68.6 µM and the TGI (OVCAR-4 ovarian) was greater than 100 µM. The GI50 (UO-31 renal) was greater than 100 µM, the TGI (UO-31 renal) was greater than 100 µM and the GI50 (MALME-3M melanoma) was greater than 100 µM. It also gave a TGI (MALME-3M melanoma) greater than 100 µM, a GI50 (HOP-62 NSCLC) of 84.6 µM and a TGI (HOP-62 NSCLC) greater than 100 µM. It also gave a GI50 (ACHN renal) greater than 100 µM, a TGI (ACHN renal) greater than 100 µM and a GI50 (SK-OV-3 ovarian) greater than 100 µM. The TGI (SK-OV-3 ovarian) was greater than 100 µM, the GI50 (MOLT-4 leukemia) was greater than 70 µM and the TGI (MOLT-4 leukemia) was greater than 100 µM. For the same compound, the GI50 (SN12C renal) was greater than 76.8 µM and the TGI (SN12C renal) was greater than 100 µM.

O=C1CC2OCC=C3CN4CCC5(C(=O)O)C(N1)C2C3CC45 (stereo not given) showed a TGI (SF-295 CNS) greater than 100 µM, a TGI (IGROV1 ovarian) greater than 100 µM and a TGI (OVCAR-4 ovarian) greater than 100 µM. The TGI (UO-31 renal) was greater than 100 µM, the TGI (MALME-3M melanoma) was greater than 100 µM and the TGI (HOP-62 NSCLC) was greater than 100 µM. It also gave a TGI (ACHN renal) greater than 100 µM, a TGI (SK-OV-3 ovarian) greater than 100 µM and a TGI (MOLT-4 leukemia) greater than 100 µM. For the same compound, the TGI (SN12C renal) was greater than 100 µM.

With N#CC(C#N)C(c1ccccc1)c1ccccc1 the TGI (SF-295 CNS) was greater than 100 µM, the TGI (IGROV1 ovarian) was greater than 100 µM and the TGI (OVCAR-4 ovarian) was greater than 100 µM. For the same compound, the TGI (UO-31 renal) was greater than 100 µM, the TGI (MALME-3M melanoma) was greater than 100 µM and the TGI (HOP-62 NSCLC) was greater than 100 µM. It also gave a TGI (ACHN renal) greater than 100 µM, a TGI (SK-OV-3 ovarian) greater than 100 µM and a TGI (MOLT-4 leukemia) greater than 100 µM. For the same compound, the TGI (SN12C renal) was greater than 100 µM.

With O=C(/C=C/c1ccc(Cl)cc1Cl)c1ccc(Cl)cc1Cl the GI50 (SF-295 CNS) was 18.7 µM, the TGI (SF-295 CNS) was 47.7 µM and the GI50 (IGROV1 ovarian) was 22.3 µM. It also gave a TGI (IGROV1 ovarian) of 55.8 µM, a GI50 (OVCAR-4 ovarian) of 26.6 µM and a TGI (OVCAR-4 ovarian) of 88.5 µM. It also gave a GI50 (UO-31 renal) of 15 µM, a TGI (UO-31 renal) greater than 44.8 µM and a GI50 (MALME-3M melanoma) of 13.9 µM. The TGI (MALME-3M melanoma) was 35.6 µM, the GI50 (HOP-62 NSCLC) was 26.1 µM and the TGI (HOP-62 NSCLC) was greater than 68.9 µM. The GI50 (ACHN renal) was 22.1 µM, the TGI (ACHN renal) was 47.9 µM and the GI50 (SK-OV-3 ovarian) was 37.8 µM. It also gave a TGI (SK-OV-3 ovarian) greater than 100 µM, a GI50 (MOLT-4 leukemia) of 6.11 µM and a TGI (MOLT-4 leukemia) of 14.9 µM. The TGI (SN12C renal) was 24.8 µM.

CN(C)Cc1cc(C(C)(C)C)cc(CN(C)C)c1O showed a TGI (SF-295 CNS) greater than 100 µM, a TGI (IGROV1 ovarian) greater than 100 µM and a TGI (OVCAR-4 ovarian) greater than 100 µM. For the same compound, the TGI (UO-31 renal) was 51.6 µM, the TGI (MALME-3M melanoma) was greater than 100 µM and the TGI (HOP-62 NSCLC) was greater than 100 µM. The TGI (ACHN renal) was greater than 100 µM, the TGI (SK-OV-3 ovarian) was greater than 100 µM and the TGI (MOLT-4 leukemia) was greater than 100 µM. It also gave a TGI (SN12C renal) greater than 100 µM.

With COC(=O)Nc1nc2ccc(C(=O)c3cccs3)cc2[nH]1 the GI50 (SF-295 CNS) was 0.109 µM, the GI50 (IGROV1 ovarian) was 0.594 µM and the TGI (IGROV1 ovarian) was 36.5 µM and > 100 µM. The TGI (OVCAR-4 ovarian) was 70.9 µM and > 100 µM, the GI50 (UO-31 renal) was 3.23 µM and the TGI (UO-31 renal) was 38.2 µM and > 100 µM. The GI50 (MALME-3M melanoma) was 0.296 µM, the TGI (MALME-3M melanoma) was 43.5 µM and > 100 µM and the GI50 (HOP-62 NSCLC) was 1.11 µM. The TGI (HOP-62 NSCLC) was 32.8 µM and > 100 µM, the GI50 (ACHN renal) was 1.24 µM and the TGI (ACHN renal) was 87.5 µM and > 100 µM. For the same compound, the GI50 (SK-OV-3 ovarian) was 0.347 µM, the GI50 (MOLT-4 leukemia) was 0.269 µM and the TGI (MOLT-4 leukemia) was 13 µM and > 100 µM. For the same compound, the GI50 (SN12C renal) was 0.729 µM and the TGI (SN12C renal) was 32.9 µM and > 100 µM.

Compound O=C(N/N=C/c1ccc(N(CCCl)CCCl)cc1)c1ccc(C(=O)N/N=C/c2ccc(N(CCCl)CCCl)cc2)cc1 has a GI50 (SF-295 CNS) of 0.213 µM, a TGI (SF-295 CNS) greater than 100 µM and a GI50 (IGROV1 ovarian) of 20.7 µM. The TGI (IGROV1 ovarian) was greater than 100 µM, the GI50 (OVCAR-4 ovarian) was 47.9 µM and the TGI (OVCAR-4 ovarian) was greater than 100 µM. The GI50 (UO-31 renal) was greater than 100 µM, the TGI (UO-31 renal) was greater than 100 µM and the GI50 (MALME-3M melanoma) was 11.2 µM. It also gave a TGI (MALME-3M melanoma) greater than 100 µM, a GI50 (HOP-62 NSCLC) of 0.653 µM and a TGI (HOP-62 NSCLC) greater than 100 µM. For the same compound, the GI50 (ACHN renal) was 6.8 µM, the TGI (ACHN renal) was greater than 100 µM and the GI50 (SK-OV-3 ovarian) was 10.5 µM. The TGI (SK-OV-3 ovarian) was greater than 100 µM, the GI50 (MOLT-4 leukemia) was 0.226 µM and the TGI (MOLT-4 leukemia) was greater than 100 µM. It also gave a GI50 (SN12C renal) of 0.232 µM and a TGI (SN12C renal) greater than 100 µM.

With COC(=N)CCCl the TGI (SF-295 CNS) was greater than 100 µM, the TGI (IGROV1 ovarian) was greater than 100 µM and the TGI (OVCAR-4 ovarian) was greater than 100 µM. It also gave a TGI (UO-31 renal) greater than 100 µM, a TGI (MALME-3M melanoma) greater than 100 µM and a TGI (HOP-62 NSCLC) greater than 100 µM. It also gave a TGI (ACHN renal) greater than 100 µM, a TGI (SK-OV-3 ovarian) greater than 100 µM and a TGI (MOLT-4 leukemia) greater than 100 µM. It also gave a TGI (SN12C renal) greater than 100 µM.

Cc1c2ccccc2c(C)n2c1nc1cc(Cl)c(Cl)cc12 showed a GI50 (SF-295 CNS) greater than 100 µM, a TGI (SF-295 CNS) greater than 100 µM and a GI50 (IGROV1 ovarian) of 8.62 µM. For the same compound, the TGI (IGROV1 ovarian) was greater than 100 µM, the GI50 (OVCAR-4 ovarian) was 22.4 µM and the TGI (OVCAR-4 ovarian) was greater than 100 µM. For the same compound, the GI50 (UO-31 renal) was 8.14 µM, the TGI (UO-31 renal) was greater than 100 µM and the GI50 (MALME-3M melanoma) was greater than 100 µM. The GI50 (HOP-62 NSCLC) was greater than 100 µM, the TGI (HOP-62 NSCLC) was greater than 100 µM and the GI50 (ACHN renal) was 26 µM. It also gave a TGI (ACHN renal) greater than 100 µM, a GI50 (SK-OV-3 ovarian) greater than 100 µM and a TGI (SK-OV-3 ovarian) greater than 100 µM. For the same compound, the GI50 (MOLT-4 leukemia) was 16 µM, the TGI (MOLT-4 leukemia) was 8.62 µM and 46.5 µM and the GI50 (SN12C renal) was greater than 100 µM. For the same compound, the TGI (SN12C renal) was greater than 100 µM.
